Assay results published in patent EP0067910B1, “Compounds and compositions for treatment of ocular hypertension” (priority 1981, dated 1982).
Where a name gives a salt, the structure may show the parent alone.

Legend:
conscious rabbits = assay: Ocular response (intraocular pressure, pupil diameter) to a single topical application to one eye of conscious rabbits; assay type: in vivo; conditions: for Intraocular Pressure (mm Hg) Mean Δ: control eye minus exp. eye; for Intraocular Pressure (mm Hg) Mean Δ / Pupil Diameter (mm) Mean Δ / Intraocular Pressure (mm Hg) Exp. Eye / Pupil Diameter (mm) Exp. Eye: mean of maximal responses; for Pupil Diameter (mm) Mean Δ: difference between pairs of eyes; for Intraocular Pressure (mm Hg) Exp. Eye / Pupil Diameter (mm) Exp. Eye: single topical application; for Intraocular Pressure (mm Hg) Mean Δ Control-Exp. / Intraocular Pressure (mm Hg) Treated Eye: single application; for intraocular pressure / pupillary dilation: in 0.9 percent (w/v) physiological saline, summary of Tables IIIA, IIIB, IV and V
Excerpt: The effect of different concentrations of racemic a-methyl norepinephrine hydrochloride in 0.9 percent (w/v) physiological saline applied singly to one eye of conscious rabbits is summarized in Table I, below.
The reported pressure and pupillary responses are the means of the maximal responses based on the time courses of the responses in pairs of eyes of individual rabbits. The number in parentheses denotes the number of experimental subjects.
The mean time course of the ocular response to a 0.5 percent (w/v) solution of racemic a-methyl norepinephrine in 0.9 percent (w/v) physiological saline applied unilaterally to conscious rabbits is shown in Table II, below.
The drug was applied unilaterally (treated eye). In the third column is reported the mean pressure difference in pairs of eyes of individual rabbits. The number in parentheses denotes the number of experimental subjects.
Tables IIIA, IIIB, IV and V, below, summarize the experimental results using racemic a-methyl epinephrine, diester of a-methyl epinephrine, and diester of a-methyl norepinephrine in 0.9 percent (w/v) physiological saline.
The drug was applied unilaterally (Exp. Eye) at T = 0 hr. In the third column is reported the mean pressure difference between pairs of eyes of individual rabbits.

intraocular pressure = conditions: Annals of Ophthalmology, 3, No. 3, 282 (March 1971); cited from earlier work
[1] = test system: normal healthy volunteers; assay: Tonometry, tonography and pupil diameter after one drop to one eye of human subjects; assay type: in vivo; conditions: for intraocular pressures of the treated eyes: one drop of 0.1 percent (w/v), seven subjects
Method: Tonometry and tonography studies were performed on normal healthy volunteers using an instrument denominated The Alcon pneumatonograph, available from Alcon Laboratories, Forth Worth, Texas. One drop of proparacaine (0.5 percent w/v) was applied to each eye prior to taking tonometric readings. The tonometer was calibrated by a manometric standard prior to initiation of these studies and checked on an air standardizer on each day of use. […] Pupil diameters were measured under normal laboratory light.
Each drug discussed hereinafter was dissolved in sterile physiological saline.
The reported values are the means of the maximal responses based on the time courses of the responses in pairs of eyes of individual subjects. The numbers in parentheses denote the number of experimental subjects. Po (mm Hg) is the intraocular pressure in seated subjects, C (µl min^-1 mm Hg^-1) is the outflow facility, and F (ul min^-1) is the rate of formation of the aqueous humor (subject supine).

Solubility in water = assay type: physicochemical
[2] = human, in vivo
Method: The blood pressure and the heart rate of all subjects given the dipivaloyl a-methyl epinephrine were measured prior to and after administration of the drop. No decrease in blood pressure or heart rate was observed.

[3] = 0.5 percent (w/v), six rabbits, time 0 hours
[4] = 0.5 percent (w/v), six rabbits, time 1 hour
[5] = 0.5 percent (w/v), six rabbits, time 3 hours
[6] = 0.5 percent (w/v), six rabbits, time 4 hours
[7] = tonographic studies on human subjects
[8] = 0.1 percent (w/v), normal subjects
[9] = 0.5 percent (w/v), normal subjects
[10] = 0.5 percent (w/v) solution, eight rabbits, time 0 hours
[11] = 0.5 percent (w/v) solution, eight rabbits, time 0.5 hours
[12] = 0.5 percent (w/v) solution, eight rabbits, time 1.0 hours
[13] = 0.5 percent (w/v) solution, eight rabbits, time 3.0 hours
[14] = 0.5 percent (w/v) solution, eight rabbits, time 5.0 hours
[15] = 0.5 percent (w/v) solution, eight rabbits, time 24.0 hours
[16] = 0.5 percent (w/v), two normal subjects

## CC(N)C(O)c1ccc(O)c(O)c1 (racemic) [α-Methyl Norepinephrine, a-methyl norepinephrine]
Conscious rabbits; 0.1 percent wt. by volume
  Intraocular Pressure (mm Hg) Mean Δ: 0.9 ± 0.3 (4) mm Hg
  Pupil Diameter (mm) Mean Δ: 0.9 ± 0.4 (4) mm
  Intraocular Pressure (mm Hg) Exp. Eye: 20.6 ± 1.3 mm Hg
  Pupil Diameter (mm) Exp. Eye: 4.6 ± 0.47 mm
Conscious rabbits; 0.3 percent wt. by volume
  Intraocular Pressure (mm Hg) Mean Δ: 4.5 ± 0.3 (4) mm Hg
  Pupil Diameter (mm) Mean Δ: 1.2 ± 0.63 (4) mm
  Intraocular Pressure (mm Hg) Exp. Eye: 16.5 ± 0.3 mm Hg
  Pupil Diameter (mm) Exp. Eye: 4.4 ± 0.9 mm
Conscious rabbits; [3]
  Intraocular Pressure (mm Hg) Mean Δ Control-Exp.: 0.3 ± 0.3 (6) mm Hg
  Intraocular Pressure (mm Hg) Treated Eye: 22.8 ± 1.4 (6) mm Hg
Conscious rabbits; [4]
  Intraocular Pressure (mm Hg) Mean Δ Control-Exp.: 2.8 ± 0.9 (6) mm Hg
  Intraocular Pressure (mm Hg) Treated Eye: 20.2 ± 1.6 (6) mm Hg
Conscious rabbits; [5]
  Intraocular Pressure (mm Hg) Mean Δ Control-Exp.: 7.2 ± 0.9 (6) mm Hg
  Intraocular Pressure (mm Hg) Treated Eye: 15.8 ± 1.3 (6) mm Hg
Conscious rabbits; [6]
  Intraocular Pressure (mm Hg) Mean Δ Control-Exp.: 6.3 ± 1.2 (6) mm Hg
  Intraocular Pressure (mm Hg) Treated Eye: 16.7 ± 1.2 (6) mm Hg
Conscious rabbits; 0.5 percent wt. by volume
  Intraocular Pressure (mm Hg) Mean Δ: 6.0 ± 0.3 (4) mm Hg
  Pupil Diameter (mm) Mean Δ: 0.9 ± 0.5 (4) mm
  Intraocular Pressure (mm Hg) Exp. Eye: 15.5 ± 0.8 mm Hg
  Pupil Diameter (mm) Exp. Eye: 3.9 ± 0.4 mm
Conscious rabbits; 0.8 percent wt. by volume
  Intraocular Pressure (mm Hg) Mean Δ: 6.8 ± 0.7 (6) mm Hg
  Pupil Diameter (mm) Mean Δ: 1.1 ± 0.30 (6) mm
  Intraocular Pressure (mm Hg) Exp. Eye: 15.7 ± 1.1 mm Hg
  Pupil Diameter (mm) Exp. Eye: 4.8 ± 0.42 mm
Conscious rabbits; 1.0 percent wt. by volume
  Intraocular Pressure (mm Hg) Mean Δ: 7.4 ± 0.7 (10) mm Hg
  Pupil Diameter (mm) Mean Δ: 3.4 ± 0.4 (10) mm
  Intraocular Pressure (mm Hg) Exp. Eye: 14.3 ± 0.6 mm Hg
  Pupil Diameter (mm) Exp. Eye: 7.2 ± 0.51 mm
Intraocular pressure
  lowering intraocular pressure: inactive

## CNC(C)C(O)c1ccc(OC(=O)C(C)(C)C)c(OC(=O)C(C)(C)C)c1 (centres unmarked) [4-(2-N-methylamino-1-hydroxypropyl)-1,2-dipivaloyloxybenzene hydrochloride]
[1]; 0.1 percent (w/v), normal subject
  pupillary response: almost complete lack of pupillary response
[1]; 24 hours
  intraocular pressures of the treated eyes: recovered
[1]; at 1 and 5 hours
  intraocular pressures of the treated eyes: significantly decreased
[1]; [7]
  outflow facility: increase
  rate of formation of the aqueous humor: reduction

## CC(N)C(O)c1ccc(OC(=O)C(C)(C)C)c(OC(=O)C(C)(C)C)c1 (centres unmarked) [Compound 5, 4-(2-amino-1-hyaroxypropyt)-1,2-dipivaioyioxybenzene hydrochloride]
Solubility in water
  solubility in water: freely soluble in water

## CNC(C)C(O)c1ccc(OC(=O)C(C)(C)C)c(OC(=O)C(C)(C)C)c1 (centres unmarked) [diester of a-methyl epinephrine]
Conscious rabbits
  intraocular pressure: reducing intraocular pressure
  pupillary dilation: lack of pupillary dilation

## CC(N)C(O)c1ccc(OC(=O)C(C)(C)C)c(OC(=O)C(C)(C)C)c1 (centres unmarked) [diester of a-methyl norepinephrine]
Conscious rabbits
  intraocular pressure: reducing intraocular pressure
  pupillary dilation: lack of pupillary dilation

## CNC(C)C(O)c1ccc(OC(=O)C(C)(C)C)c(OC(=O)C(C)(C)C)c1 (centres unmarked) [dipivaloyl a-methyl epinephrine]
[1]; one drop of 0.05 percent (w/v), three normal human subjects, at 1 and 3 hours
  intraocular pressure of the treated eye: decreased
[2]
  blood pressure: No decrease
  heart rate: No decrease

## CNCC(O)c1ccc(OC(=O)C(C)(C)C)c(OC(=O)C(C)(C)C)c1 (centres unmarked) [dipivaloyl epinephrine, reference compound]
[1]; [8]
  intraocular pressure response: no effect on intraocular pressure
[1]; [9]
  intraocular pressure response: significant decrease of intraocular pressure
  mydriasis: marked mydriasis
[1]; normal subjects, 1 hour after application
  intraocular pressure response at 1 hour: no significant pressure response

## CC(C)(C)NC[C@H](O)COc1nsnc1N1CCOCC1 [timolol maleate, reference compound]
[1]; [8]
  intraocular pressure response: no demonstrable pressure response
[1]; [9]
  intraocular pressure response: did give a pressure response
[1]; normal subjects, concentration not given
  pupillary response: lack of pupillary response
[1]; [7]
  outflow facility: no effect

## CNC(C)C(O)c1ccc(O)c(O)c1 (stereo not drawn) [α-methyl Epinephrine Hydrochloride, a-methyl epinephrine hydrochloride]
Conscious rabbits; [10]
  Intraocular Pressure (mm Hg) Mean Δ Control-Exp.: −0.1 ± 0.2 mm Hg
  Intraocular Pressure (mm Hg) Treated Eye: 22.7 ± 0.6 mm Hg
Conscious rabbits; [11]
  Intraocular Pressure (mm Hg) Mean Δ Control-Exp.: 3.3 ± 0.8 mm Hg
  Intraocular Pressure (mm Hg) Treated Eye: 19.4 ± 1.3 mm Hg
Conscious rabbits; [12]
  Intraocular Pressure (mm Hg) Mean Δ Control-Exp.: 5.9 ± 0.6 mm Hg
  Intraocular Pressure (mm Hg) Treated Eye: 15.9 ± 1.2 mm Hg
Conscious rabbits; [13]
  Intraocular Pressure (mm Hg) Mean Δ Control-Exp.: 6.0 ± 0.8 mm Hg
  Intraocular Pressure (mm Hg) Treated Eye: 14.1 ± 0.5 mm Hg
Conscious rabbits; [14]
  Intraocular Pressure (mm Hg) Mean Δ Control-Exp.: 5.5 ± 0.7 mm Hg
  Intraocular Pressure (mm Hg) Treated Eye: 14.6 ± 0.6 mm Hg
Conscious rabbits; [15]
  Intraocular Pressure (mm Hg) Mean Δ Control-Exp.: 0.6 ± 0.1 mm Hg
  Intraocular Pressure (mm Hg) Treated Eye: 22.9 ± 0.9 mm Hg
Conscious rabbits
  intraocular pressure: reducing intraocular pressure
  pupillary dilation: lack of pupillary dilation
[1]; [16]
  intraocular pressure in the treated eyes: significant decrease
  mydriatic response: not associated with a mydriatic response
  time to development of the decrease of intraocular pressure: ≤ 1 h
Intraocular pressure
  lowering intraocular pressure: inactive
